Measurements reported in ChEMBL document CHEMBL1687765, “NagZ inactivation prevents and reverts beta-lactam resistance, driven by AmpD and PBP 4 mutations, in Pseudomonas aeruginosa” (2010).

Columns and labels:
Format in all cases: functional
Pseudomonas aeruginosa [1] = assay: Induction of creD mRNA in nagZ::lox gene-deficient Pseudomonas aeruginosa PAO1 at 50 ug/ml by RT-PCR relative to wild type Pseudomonas aeruginosa PAO1 (reference value: 1.1 +/- 0.3 no unit)
Pseudomonas aeruginosa [2] = assay: Induction of ampC mRNA in ampD::lox, ampDh2::lox and ampDh3::lox gene-deficient Pseudomonas aeruginosa PAO1 at 50 ug/ml by RT-PCR relative to wild type Pseudomonas aeruginosa PAO1 (reference value: 1020 +/- 88 no unit)
Pseudomonas aeruginosa [3] = assay: Induction of ampC mRNA in ampR::lox gene-deficient Pseudomonas aeruginosa PAO1 at 50 ug/ml by RT-PCR relative to wild type Pseudomonas aeruginosa PAO1 (reference value: 3.8 +/- 0.4 no unit)
Pseudomonas aeruginosa [4] = assay: Induction of ampC mRNA in ampD::lox gene-deficient Pseudomonas aeruginosa PAO1 at 50 ug/ml by RT-PCR relative to wild type Pseudomonas aeruginosa PAO1 (reference value: 47 +/-9.5 no unit)
Pseudomonas aeruginosa [5] = assay: Induction of ampC mRNA in dacB::lox gene-deficient Pseudomonas aeruginosa PAO1 at 50 ug/ml by RT-PCR relative to wild type Pseudomonas aeruginosa PAO1 (reference value: 51 +/- 16 no unit)
Pseudomonas aeruginosa [6] = assay: Induction of ampC mRNA in ampD::lox, ampDh2::lox,ampDh3::lox and nagZ::lox gene-deficient Pseudomonas aeruginosa PAO1 at 50 ug/ml by RT-PCR relative to wild type Pseudomonas aeruginosa PAO1 (reference value: 57 +/- 31 no unit)
Pseudomonas aeruginosa [7] = assay: Induction of creD mRNA in ampD::lox and nagZ::lox gene-deficient Pseudomonas aeruginosa PAO1 at 50 ug/ml by RT-PCR relative to wild type Pseudomonas aeruginosa PAO1 (reference value: 2.8 +/- 1.6 no unit)
Pseudomonas aeruginosa [8] = assay: Induction of ampC mRNA in dacB::lox and nagZ::lox gene-deficient Pseudomonas aeruginosa PAO1 at 50 ug/ml by RT-PCR relative to wild type Pseudomonas aeruginosa PAO1 (reference value: 3 +/- 1.9 no unit)
Pseudomonas aeruginosa [9] = assay: Induction of ampC mRNA in ampD::lox and nagZ::lox gene-deficient Pseudomonas aeruginosa PAO1 at 50 ug/ml by RT-PCR relative to wild type Pseudomonas aeruginosa PAO1 (reference value: 40 +/- 17 no unit) harboring dacB gene
Pseudomonas aeruginosa [10] = assay: Induction of ampC mRNA in ampD::lox and nagZ::lox gene-deficient Pseudomonas aeruginosa PAO1 at 50 ug/ml by RT-PCR relative to wild type Pseudomonas aeruginosa PAO1 (reference value: 1 +/- 0.4 no unit)
Pseudomonas aeruginosa [11] = assay: Induction of creD mRNA in ampD::lox, ampDh2::lox and ampDh3::lox gene-deficient Pseudomonas aeruginosa PAO1 at 50 ug/ml by RT-PCR relative to wild type Pseudomonas aeruginosa PAO1 (reference value: 1.3 +/- 0.3 no unit)
Pseudomonas aeruginosa [12] = assay: Induction of creD mRNA in ampD::lox and nagZ::lox gene-deficient Pseudomonas aeruginosa PAO1 at 50 ug/ml by RT-PCR relative to wild type Pseudomonas aeruginosa PAO1 (reference value: 1.9 +/- 1.3 no unit) harboring dacB gene
Pseudomonas aeruginosa [13] = assay: Induction of creD mRNA in ampD::lox gene-deficient Pseudomonas aeruginosa PAO1 at 50 ug/ml by RT-PCR relative to wild type Pseudomonas aeruginosa PAO1 (reference value: 1.1 +/- 0.3 no unit)
Pseudomonas aeruginosa [14] = assay: Induction of ampC mRNA in ampD::lox gene-deficient Pseudomonas aeruginosa PAO1 at 50 ug/ml by RT-PCR relative to wild type Pseudomonas aeruginosa PAO1 (reference value: 1770 +/- 414 no unit) harboring dacB gene
Pseudomonas aeruginosa [15] = assay: Induction of creD mRNA in ampR::lox gene-deficient Pseudomonas aeruginosa PAO1 at 50 ug/ml by RT-PCR relative to wild type Pseudomonas aeruginosa PAO1 (reference value: 1.6 +/- 0.1 no unit)
Pseudomonas aeruginosa [16] = assay: Induction of ampC mRNA in Pseudomonas aeruginosa PAO1 at 50 ug/ml by RT-PCR relative to wild type Pseudomonas aeruginosa PAO1 (reference value: 1 no unit)
Pseudomonas aeruginosa [17] = assay: Induction of ampC mRNA in nagZ::lox gene-deficient Pseudomonas aeruginosa PAO1 at 50 ug/ml by RT-PCR relative to wild type Pseudomonas aeruginosa PAO1 (reference value: -2.1 +/- 1.5 no unit)
Pseudomonas aeruginosa [18] = assay: Induction of creD mRNA in ampD::lox, ampDh2::lox,ampDh3::lox and nagZ::lox gene-deficient Pseudomonas aeruginosa PAO1 at 50 ug/ml by RT-PCR relative to wild type Pseudomonas aeruginosa PAO1 (reference value: -1.4 +/- 0.1 no unit)
Pseudomonas aeruginosa [19] = assay: Induction of creD mRNA in Pseudomonas aeruginosa PAO1 at 50 ug/ml by RT-PCR relative to wild type Pseudomonas aeruginosa PAO1 (reference value: 1 no unit)
Pseudomonas aeruginosa [20] = assay: Induction of creD mRNA in ampD::lox gene-deficient Pseudomonas aeruginosa PAO1 at 50 ug/ml by RT-PCR relative to wild type Pseudomonas aeruginosa PAO1 (reference value: 51 +/- 24 no unit) harboring dacB gene
Pseudomonas aeruginosa [21] = assay: Induction of creD mRNA in dacB::lox and nagZ::lox gene-deficient Pseudomonas aeruginosa PAO1 at 50 ug/ml by RT-PCR relative to wild type Pseudomonas aeruginosa PAO1 (reference value: 4 +/- 0.8 no unit)
Pseudomonas aeruginosa [22] = assay: Induction of creD mRNA in dacB::lox gene-deficient Pseudomonas aeruginosa PAO1 at 50 ug/ml by RT-PCR relative to wild type Pseudomonas aeruginosa PAO1 (reference value: 83 +/- 7 no unit)

Question: `CO[C@@]1(NC(=O)Cc2cccs2)C(=O)N2C(C(=O)O)=C(COC(N)=O)CS[C@@H]21` [CEFOXITIN] was tested. Which “fold change (FC)” value (Pseudomonas aeruginosa [1]) did it give?
Answer: 54

Question: What about the “fold change (FC)” value (Pseudomonas aeruginosa [2]) of the same compound?
Answer: 1105

Question: And the “fold change (FC)” value (Pseudomonas aeruginosa [3])?
Answer: 3.3

Question: What about the “fold change (FC)” value (Pseudomonas aeruginosa [4]) of the same compound?
Answer: 134

Question: What about the “fold change (FC)” value (Pseudomonas aeruginosa [5]) of the same compound?
Answer: 232

Question: What about the “fold change (FC)” value (Pseudomonas aeruginosa [6]) of the same compound?
Answer: 905

Question: What about the “fold change (FC)” value (Pseudomonas aeruginosa [7]) of the same compound?
Answer: 99

Question: What about the “fold change (FC)” value (Pseudomonas aeruginosa [8]) of the same compound?
Answer: 661

Question: And the “fold change (FC)” value (Pseudomonas aeruginosa [9])?
Answer: 906

Question: And the “fold change (FC)” value (Pseudomonas aeruginosa [10])?
Answer: 483

Question: And the “fold change (FC)” value (Pseudomonas aeruginosa [11])?
Answer: 1.6

Question: And the “fold change (FC)” value (Pseudomonas aeruginosa [12])?
Answer: 418

Question: And the “fold change (FC)” value (Pseudomonas aeruginosa [13])?
Answer: 2.7

Question: What about the “fold change (FC)” value (Pseudomonas aeruginosa [14]) of the same compound?
Answer: 1950

Question: What about the “fold change (FC)” value (Pseudomonas aeruginosa [15]) of the same compound?
Answer: 189

Question: What about the “fold change (FC)” value (Pseudomonas aeruginosa [16]) of the same compound?
Answer: 78

Question: What about the “fold change (FC)” value (Pseudomonas aeruginosa [17]) of the same compound?
Answer: 469

Question: What about the “fold change (FC)” value (Pseudomonas aeruginosa [18]) of the same compound?
Answer: 1

Question: And the “fold change (FC)” value (Pseudomonas aeruginosa [19])?
Answer: 24

Question: What about the “fold change (FC)” value (Pseudomonas aeruginosa [20]) of the same compound?
Answer: 81

Question: And the “fold change (FC)” value (Pseudomonas aeruginosa [21])?
Answer: 95

Question: What about the “fold change (FC)” value (Pseudomonas aeruginosa [22]) of the same compound?
Answer: 120
